Measurements from publication PMC11945486, “TAS1R2/TAS1R3 Single-Nucleotide Polymorphisms Affect Sweet Taste Receptor Activation by Sweeteners: The SWEET Project” (Nutrients, 2025).
One block for each molecule: values may come before it. No end group written: not given here.

Biological target: T1, human TAS1R2-R838K/TAS1R3-WT (Homo sapiens, UniProt Q7RTX0+Q8TE23, R838K)
T1 construct: expressed in transfected cells; host or cells: HEK293T-Gα16gust44
T1 sequence (Q8TE23 20-839 R838K): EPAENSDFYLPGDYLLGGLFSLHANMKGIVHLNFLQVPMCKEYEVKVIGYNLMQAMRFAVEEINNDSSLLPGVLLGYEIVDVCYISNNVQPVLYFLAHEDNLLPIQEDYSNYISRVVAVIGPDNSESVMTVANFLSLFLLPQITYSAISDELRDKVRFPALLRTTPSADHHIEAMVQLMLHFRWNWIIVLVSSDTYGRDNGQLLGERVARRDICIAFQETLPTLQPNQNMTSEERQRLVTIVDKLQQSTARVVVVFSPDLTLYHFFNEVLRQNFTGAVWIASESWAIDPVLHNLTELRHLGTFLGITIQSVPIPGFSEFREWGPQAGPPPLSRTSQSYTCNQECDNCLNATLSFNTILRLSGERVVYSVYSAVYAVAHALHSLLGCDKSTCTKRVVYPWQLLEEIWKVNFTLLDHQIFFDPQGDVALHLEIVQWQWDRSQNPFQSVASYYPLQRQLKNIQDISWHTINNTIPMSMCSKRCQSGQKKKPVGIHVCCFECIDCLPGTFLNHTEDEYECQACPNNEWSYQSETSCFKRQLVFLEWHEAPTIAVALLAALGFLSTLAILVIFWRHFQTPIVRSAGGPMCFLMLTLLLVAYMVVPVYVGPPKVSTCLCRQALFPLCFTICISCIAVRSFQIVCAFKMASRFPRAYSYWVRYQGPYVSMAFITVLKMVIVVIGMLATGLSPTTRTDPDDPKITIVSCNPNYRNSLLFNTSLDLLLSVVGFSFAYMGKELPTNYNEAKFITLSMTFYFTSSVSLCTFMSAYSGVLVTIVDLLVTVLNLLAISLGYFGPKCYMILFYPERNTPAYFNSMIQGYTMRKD
T1 sequence (Q7RTX0 21-852): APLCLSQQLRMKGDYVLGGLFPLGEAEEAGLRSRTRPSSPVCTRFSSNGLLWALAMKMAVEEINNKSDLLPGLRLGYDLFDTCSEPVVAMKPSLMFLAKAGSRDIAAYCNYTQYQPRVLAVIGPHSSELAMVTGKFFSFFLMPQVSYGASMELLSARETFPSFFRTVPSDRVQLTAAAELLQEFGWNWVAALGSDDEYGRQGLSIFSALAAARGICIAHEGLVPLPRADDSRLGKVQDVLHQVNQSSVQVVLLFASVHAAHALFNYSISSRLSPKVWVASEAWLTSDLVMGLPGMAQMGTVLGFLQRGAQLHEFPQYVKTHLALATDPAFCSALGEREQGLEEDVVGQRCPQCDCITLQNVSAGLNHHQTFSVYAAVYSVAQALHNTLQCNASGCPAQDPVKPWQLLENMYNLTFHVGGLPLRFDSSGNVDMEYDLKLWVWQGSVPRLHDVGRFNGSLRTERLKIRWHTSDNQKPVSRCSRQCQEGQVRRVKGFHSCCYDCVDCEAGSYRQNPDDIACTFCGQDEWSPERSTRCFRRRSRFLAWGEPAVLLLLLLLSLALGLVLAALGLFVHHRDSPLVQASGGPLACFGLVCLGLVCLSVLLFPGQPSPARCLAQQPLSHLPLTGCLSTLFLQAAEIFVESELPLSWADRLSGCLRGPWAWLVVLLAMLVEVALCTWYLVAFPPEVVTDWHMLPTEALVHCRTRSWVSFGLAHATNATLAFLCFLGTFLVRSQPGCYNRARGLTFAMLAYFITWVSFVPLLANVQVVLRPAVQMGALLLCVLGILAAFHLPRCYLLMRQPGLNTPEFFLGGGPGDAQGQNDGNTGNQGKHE
Test: Calcium mobilisation assay, TAS1R2 variant R838K with TAS1R3-WT
Assay type: cell-based
Conditions: for Max ΔF/F0: maximal signal amplitude
Excerpt: The coding sequences for TAS1R2 and TAS1R3 were commercially synthesised, and the human codon was optimised for expression in human cells. The coding sequences of human TAS1R2 and TAS1R3 were subcloned and inserted into the mammalian expression vectors pcDNA6/myc-HisA and pcDNA4/myc-HisA (Invitrogen; Thermo Fisher Scientific; Illkirch, France) between the EcoRI and NotI restriction sites, generating the plasmids pcDNA6-TAS1R2 and pcDNA4-TAS1R3, respectively. To increase protein expression in mammalian cells, an upstream start codon was used, which was a sequence called MAX, corresponding to the QBI SP163 element also described in pcDNA4-HisMax (Invitrogen; Thermo Fisher Scientific; Illkirch, France). To measure the expression level of the receptor by immunohistochemistry, we used the FLAG sequence ([…]) in the C-terminal position, which encodes the FLAG tag epitope. SNP variants of TAS1R2 and TAS1R3 were constructed based on […], respectively, using site-directed mutagenesis (Genewiz; Leipzig, Germany).
The HEK293T cells were kindly provided by Jay P. Slack (Givaudan Flavors Corporation; Cincinnati, OH, USA). HEK293T cells stably transfected with Gα16gust44 [43, 67] were seeded in poly-D-lysine-coated clear-bottom black 96-well plates (0.35 × 10^5 cells/well) in high-glucose DMEM supplemented with 2 mM GlutaMAX, 10% dialysed foetal bovine serum with penicillin/streptomycin and G418 (400 μg/mL) at 37 °C and 6.3% CO2 in a humidified atmosphere as previously reported. […] As a negative control, HEK293T cells were mock-transfected with the empty expression vector. After a further 24 h of incubation, the HEK293T cells were washed with C1 buffer (130 mM NaCl, 5 mM KCl, 10 mM HEPES pH 7.4 and 2 mM CaCl2). The 96-well plates containing the cells were then stimulated with sweet-tasting compounds. […] Different concentration ranges were tested depending on the sweet compound injected. The Ca^2+ changes were expressed as fractional changes in fluorescent light intensity: ΔF/F = (F − F0)/F0, where F was the fluorescent light intensity at each point, and F0 was the value of emitted fluorescent light prior to stimulus application. To calculate dose–response relationships, the changes in fluorescence upon stimulus application were averaged, mock-subtracted and baseline-corrected. The dose–response data obtained were adjusted using a 4-parameter logistic equation. The half-maximal effective concentrations (EC50 values) and maximal signal amplitudes were calculated using SigmaPlot software (version 15.0) (Systat Software; San Jose, CA, USA).
For in vitro calcium mobilisation assay performed on hTAS1R2-SNPs, hTAS1R3-SNPs and mTAS1R3-I60T, 6 to 7 concentrations were tested for each sweet compound, plus buffer alone. All concentration–receptor combinations were measured in duplicate, and each experiment was repeated at least 4 times (8 wells/concentration). Results were expressed for each concentration as ΔF/F mean ± SEM and represented as dose–response curves.

Molecule: CC1=CC(=O)NS(=O)(=O)O1 [Acesulfame K, acesulfame K]
EC50: 484 ± 47 µM
R1 = Variant EC50/WT EC50: 0.7
Max ΔF/F0: 0.42 ± 0.02

Molecule: O=S(=O)(O)NC1CCCCC1 [Cyclamate, cyclamate]
EC50: 1730 ± 24 µM

Molecule: C[C@H](CC[C@@H](O[C@@H]1O[C@H](CO[C@@H]2O[C@H](CO)[C@@H](O)[C@H](O)[C@H]2O)[C@@H](O)[C@H](O)[C@H]1O[C@@H]1O[C@H](CO)[C@@H](O)[C@H](O)[C@H]1O)C(C)(C)O)[C@H]1CC[C@@]2(C)[C@@H]3CC=C4[C@@H](CC[C@H](O[C@@H]5O[C@H](CO[C@@H]6O[C@H](CO)[C@@H](O)[C@H](O)[C@H]6O)[C@@H](O)[C@H](O)[C@H]5O)C4(C)C)[C@]3(C)[C@H](O)C[C@]12C [Mogroside V, mogroside V]
EC50: 17.1 ± 0.9 µM
R1 = Variant EC50/WT EC50: 1.0
Max ΔF/F0: 1.31 ± 0.02

Molecule: COc1ccc(CCC(=O)c2c(O)cc(O[C@@H]3O[C@H](CO)[C@@H](O)[C@H](O)[C@H]3O[C@@H]3O[C@@H](C)[C@H](O)[C@@H](O)[C@H]3O)cc2O)cc1O [NHDC, neohesperidin dihydrochalcone]
EC50: 75.8 ± 1.2 µM
R1 = Variant EC50/WT EC50: 1.0
Max ΔF/F0: 0.79 ± 0.05

Next, values leading:

EC50: 0.66 ± 0.05 µM
R1 = Variant EC50/WT EC50: 0.8
Max ΔF/F0: 0.75 ± 0.02
Molecule: COC(=O)[C@H](Cc1ccccc1)NC(=O)[C@H](CC(=O)O)NCCC(C)(C)C [Neotame]

EC50: 19.1 ± 1.2 µM
R1 = Variant EC50/WT EC50: 1.1
Max ΔF/F0: 1.45 ± 0.03
Molecule: C=C(C)[C@@H]1CC=C(/C=N/O)CC1 [Perillartine, perillartine]

EC50: 18.2 ± 1.1 µM
R1 = Variant EC50/WT EC50: 1.1
Max ΔF/F0: 1.20 ± 0.01
Molecule: C=C1C[C@@]23CC[C@H]4[C@@](C)(CCC[C@@]4(C)C(=O)O[C@@H]4O[C@H](CO)[C@@H](O)[C@H](O[C@@H]5O[C@H](CO)[C@@H](O)[C@H](O)[C@H]5O)[C@H]4O[C@@H]4O[C@H](CO)[C@@H](O)[C@H](O)[C@H]4O)[C@@H]2CC[C@]1(O[C@@H]1O[C@H](CO)[C@@H](O)[C@H](O[C@@H]2O[C@H](CO)[C@@H](O)[C@H](O)[C@H]2O)[C@H]1O[C@@H]1O[C@H](CO)[C@@H](O)[C@H](O)[C@H]1O)C3 [Rebaudioside M, rebaudioside M]

EC50: 82 ± 6 µM
R1 = Variant EC50/WT EC50: 0.9
Max ΔF/F0: 0.75 ± 0.02
Molecule: OC[C@H]1O[C@H](O[C@]2(CCl)O[C@H](CCl)[C@@H](O)[C@@H]2O)[C@H](O)[C@@H](O)[C@H]1Cl [Sucralose]

R1 = Variant EC50/WT EC50: 1.2
Max ΔF/F0: 1.2 ± 0.03
Molecule: brazzein (QDKCKKVYENYPVSKCQLANQCNYDCKLDKHARSGECFYDEKRNLQCICDYCEY; ends and bridges not checked; cysteine pairing not given here; UniProt P56552 1-54, looked up) [sweet-tasting protein obtained by recombinant production using the yeast Pichia pastoris]

R1 = Variant EC50/WT EC50: 1.4
Max ΔF/F0: 1.3 ± 0.02
Molecule: thaumatin

EC50: 10.4 ± 0.2 µM
B1: thaumatin (protein)
chain: ATFEIVNRCSYTVWAAASKGDAALDAGGRQLNSGESWTINVEPGTKGGKIWARTDCYFDDSGSGICKTGDCGGLLRCKRFGRPPTTLAEFSLNQYGKDYIDISNIKGFNVPMDFSPTTRGCRGVRCAADIVGQCPAKLKAPGGGCNDACTVFQTSEYCCTTGKCGPTEYSRFFKRLCPDAFSYVLDKPTTVTCPGSSNYRVTFCPTA
modifications: Eight disulfides
notes: sweet-tasting plant protein, E957
